# Experimental data as given in patent US20220213138A1, “CYCLIC COMPOUNDS AND METHODS OF MAKING AND USING” (UNIVERSITY OF HONG KONG, priority 2019, published 2022).
# Like-named read-outs stand apart in the source and are kept apart here. Positions of bridges follow the written chain, without caps; N, C: chain ends. No end group written: not given here.
# How the values were obtained:
# [1] = crosslinker bond
# Caco2 cells = test: Fluorescence confocal imaging analysis of Caco2 cells; type: cell-based; settings: 1 μL 10 mM peptide in 1 mL DMEM with 10% FBS, 2 hours at 37° C.
# Experimental: Caco2 cell line was provided by Prof. Jiang Xia (CUHK). A431 and HT116 cell lines were from Prof. Chiming Che (HKU). Caco2, A431 cells were cultured in DMEM supplemented with 10% FBS. HT116 cells were cultured in RPMI 1640 medium supplemented with 10% FBS. All cells were cultured in a humidified incubator at 37° C. with 5% CO2 supplemented. Cell culture medium and FBS were purchased from Gibco. Hoechst 33342 and DiI were purchased from Beyotime Biotechnology. Flow cytometry tubes were purchased from BD pharmacology.
# Caco2 cells were cultured with the confluence of 60% in the 35 mm glass-bottom dish overnight. 1 mL fresh DMEM with 10% FBS was added to the dish. 1 μL 10 mM cyclic peptide (Ac-CPIEDRPMK-CONH2)-Fluorescein (cCK9′-F) (SEQ ID NO:27) in DMSO was added into the medium for 2 hours at 37° C. After two hours' incubation, the supernatant was discarded and the cells were washed with PBS for three times. The cells were replenished with PBS. Hoechst 33342 (final concentration: 2.5 μg/mL) and DiI (final concentration: 5 μM) were added into PBS for 10 min at room temperature. The supernatant was discarded. The cells were washed with PBS for three times and replenished with 3% polyaldehyde for imaging. All images were captured and processed via Leica Application Suit X at ×63 oil objective (Leica).
# [2] = tested on: poorly differentiated colon carcinoma cells; settings: Kelly, et al., Neoplasia 2003; cited from earlier work
# [3] = 24-membered ring, OPA, PBS pH 7.4/DMSO
# [4] = 21-membered ring, OPA, PBS pH 7.4/DMSO
# [5] = 27-membered ring, OPA, PBS pH 7.4/DMSO
# [6] = crosslinker bond, 21-membered ring, OPA, then DMAC, PBS pH 7.4/DMSO, 2 steps
# [7] = crosslinker bond, 24-membered ring, OPA, then DMAC, PBS pH 7.4/DMSO, 2 steps
# [8] = crosslinker bond, 27-membered ring, OPA, then DMAC, PBS pH 7.4/DMSO, 2 steps
substance,measurement,setting,value
Ac-ACFALPKG-CONH2,"ring closure, conversion",[1]; [3],92.5%
Ac-AKVTMTCSAS-CONH2,"ring closure, conversion",[1]; [3],99%
Ac-CAHNLTHAK-CONH2,"ring closure, conversion","[1]; 33-membered ring, OPA",98%
Ac-CDWLPK-CONH2,"ring closure, conversion",[1]; [3],89.1%
Ac-CHHALTHAK-CONH2,"ring closure, conversion","[1]; 33-membered ring, OPA",98%
Ac-ENPECILDKHVQRVM-CONH2,"ring closure, conversion","[1]; 21-membered ring, OPA",98%
same,"ring closure, conversion",[1]; [4],93.6%
Ac-GAQCAFLK-CONH2,"ring closure, conversion",[1]; [4],83.3%
Ac-KAAAAAACF-CONH2,"ring closure, conversion","[1]; 30-membered ring, OPA",98%
Ac-KAAAAACF-CONH2,"ring closure, conversion","[1]; 27-membered ring, OPA",98%
Ac-KAAAAACH-CONH2,"ring closure, conversion",[1]; [5],98%
Ac-KAAAACF-CONH2,"ring closure, conversion","[1]; 24-membered ring, OPA",93%
Ac-KAAAACH-CONH2,"ring closure, conversion","[1]; 24-membered ring, OPA, PBS pH 7.4/DMSO, 0.53 mM",92%
Ac-KAAACF-CONH2,"ring closure, conversion","[1]; 21-membered ring, OPA",98%
Ac-KAAACH-CONH2,"ring closure, conversion",[1]; [4],98%
Ac-KGEAFQC-CONH2,"ring closure, conversion",[1]; [5],90.9%
Ac-NYRWRCKN-CONH2,"ring closure, conversion","[1]; 12-membered ring, OPA, PBS pH 7.4/DMSO",98%
"Cyclo-(Ac-CPIEDRPMK-CONH2)-Fluorescein (Ac-CPIEDRPMK-NH2; linker (positions not given here) via OPA; also: fluorescein conjugate, site not given here) [cCK9′-F]",imaging overlap with cell membrane dye (DiI),Caco2 cells,overlapped very well with cell membrane dye (DiI)
NH2-AAAAACF-CONH2,"ring closure, conversion","[1]; 20-membered ring, OPA",98%
NH2-AAAACF-CONH2,"ring closure, conversion","[1]; 17-membered ring, OPA",96%
NH2-AAACF-CONH2,"ring closure, conversion","[1]; 14-membered ring, OPA",98%
Phallodin analog (cyclo-(Dap-Ala-Hyp-Cys-(D)thr-Ala-Glu)),"ring closure, conversion",[1]; 15-membered ring,86.4%
bicyclo-(CNSTKNLTFAMRSSGDYGEV),"ring closure, conversion","[1]; 21-membered ring, OPA",90%
bicyclo-(CNSTKNLTFAMRSSGDYGEV)-DMAC,"ring closure, yield after HPLC",[6],69%
bicyclo-(CSQGTFTSDYSKYLDSRRAQ),"ring closure, conversion","[1]; 36-membered ring, OPA",94%
bicyclo-(CSQGTFTSDYSKYLDSRRAQ)-DMAC,"ring closure, yield after HPLC","crosslinker bond, 36-membered ring, OPA, then DMAC, PBS pH 7.4/DMSO, 2 steps",65%
bicyclo-(CSSLDEPGRGGFSSESKV),"ring closure, conversion","[1]; 15-membered ring, OPA",98%
bicyclo-(CSSLDEPGRGGFSSESKV)-DMAC,"ring closure, yield after HPLC","crosslinker bond, 15-membered ring, OPA, then DMAC, PBS pH 7.4/DMSO, 2 steps",43%
bicyclo-(Dap-A-Hyp-C-t-A-E)-DMAC,"ring closure, yield after HPLC","crosslinker bond, 15-membered ring, 2 steps",65%
cyclo-(Ac-ACFALPKG-CONH2)-DMAC,"ring closure, yield after HPLC",[7],48%
cyclo-(Ac-AKVTMTCSAS-CONH2)-DMAC,"ring closure, yield after HPLC",[7],32%
cyclo-(Ac-CDWLPK-CONH2)-DMAC,"ring closure, yield after HPLC",[7],31.9%
cyclo-(Ac-ENPECILDKHVQRVM-CONH2)-DMAC,"ring closure, yield after HPLC",[6],35%
cyclo-(Ac-GAQCAFLK-CONH2)-DMAC,"ring closure, yield after HPLC",[6],38%
cyclo-(Ac-KAAAAACH-CONH2)-DMAC,"ring closure, yield after HPLC",[8],52.2%
cyclo-(Ac-KAAAACH-CONH2)-DMAC,"ring closure, yield after HPLC","crosslinker bond, 24-membered ring, OPA, then DMAC, PBS pH 7.4/DMSO, 0.53 mM, 2 steps",34%
cyclo-(Ac-KAAACH-CONH2)-DMAC,"ring closure, yield after HPLC",[6],47.3%
cyclo-(Ac-KGEAFQC-CONH2)-DMAC,"ring closure, yield after HPLC",[8],36.6%
cyclo-(Ac—NYRWRCKN-CONH2)-DMAC,"ring closure, yield after HPLC","crosslinker bond, 12-membered ring, OPA, then DMAC, PBS pH 7.4/DMSO, 2 steps",32%
cyclo-(CNSTKNLTFAMRSSGDYGEV),"ring closure, yield after HPLC","amide bond, 60-membered ring, NaNO2, MPAA, TCEP (NCL), 6 M Gn.HCl/0.2 M phosphate buffer, 0.37 mM",31%
same,"ring closure, conversion",[1]; [4],89.2%
cyclo-(CPIEDRPMC) (disulfide 1-9 (inferred)) [CK-9],cell targeting,[2],specifically target poorly differentiated colon carcinoma cells
cyclo-(CSQGTFTSDYSKYLDSRRAQ),"ring closure, yield after HPLC","amide bond, 60-membered ring, NaNO2, MPAA, TCEP (NCL), 6 M Gn.HCl/0.2 M phosphate buffer, 0.2 mM",71.7%
same,"ring closure, conversion","[1]; 36-membered ring, OPA, PBS pH 7.4/DMSO",71.4%
cyclo-(CSSLDEPGRGGFSSESKV),"ring closure, yield after HPLC","amide bond, 54-membered ring, NaNO2, MPAA, TCEP (NCL), 6 M Gn.HCl/0.2 M phosphate buffer, 0.14 mM",68.8%
same,"ring closure, conversion","[1]; 15-membered ring, OPA, PBS pH 7.4/DMSO",86.9%
